Tests used:
[1] = Compound tissue distribution experiment in rats (metabolites 2FM-UR, 2FM-UMP, 2FM-UTP by LC-MS/MS); assay type: in vivo, Sprague Dawley rats; details: rat; for Active molecule 2FM-UTP in the blood and heart: lower limit of quantitation 5 ng/mL or 5 ng/g; for 2FM-UTP released in liver versus corresponding time points of sofosbuvir: 30 mg/Kg oral, p<0.01, FIG. 2; for 2FM-UMP released in the heart versus sofosbuvir: p<0.01, FIGS. 3A-3B
Method: Sprague Dawley rats, male, weighing 180-300 g, were provided by Shanghai Xipuer-Beikai Experimental Animal Co., Ltd. Male animals were allowed to adapt to the environment for more than 3 days, and fasted for 12 hours before the experiment, but were free to drink water. PA2020, PA2024, PA2029 and sofosbuvir were respectively dissolved in a mixed solvent of Cremophor EL, ethanol and normal saline at a volume ratio of 10:10:80 to prepare corresponding solutions. Before the administration, the animals' weight was checked to determine whether the rats met the experimental requirements. Twelve rats were selected for grouping, 2 rats in each group, and 30 mg/kg of a drug solution was administered intragastrically to the rats. Samples were respectively collected at 0.5 h, 1 h, 3 h, 6 h, 12 h and 24 h after the administration. After the rats were euthanized with carbon dioxide, the blood was collected from the heart and stored in heparin anticoagulation tubes. The blood was centrifuged at 6,000 rpm and 4° C. for 5 min, and the supernatant plasma was taken and stored in dry ice. The kidney, liver and heart of the rats were collected and rinsed with normal saline pre-cooled at 4° C. and stored in dry ice after the water was drained. After the experiment, the samples were stored in a −80° C. refrigerator.
Due to the difference in polarity, 2FM-UR, 2FM-UMP and 2FM-UTP were separated and detected using different methods, so that the used LC-triple quadrupole mass spectrometry detectors, the pretreatment conditions, chromatographic and mass spectrometric conditions varied among these compounds.
In the ice bath, 50 μL of plasma was first mixed with 50 μL of internal standard solution (10% trichloroacetic acid solution of tenofovir at 500 ng/mL). After centrifugation at 13,000 rpm and 4° C. for 10 min, 20 μL of the supernatant was mixed with 180 μL of water, and 5 μL of the resulting solution was injected and analyzed by LC-MS/MS.
The kidney, liver and heart tissue were mixed with a buffer in a volume ratio of 1:5 and fully disrupted in the ice bath. 20 μL of the tissue homogenate was mixed with 20 μL of the internal standard solution (500 ng/mL of tenofovir in 10% trichloroacetic acid solution). After centrifugation at 13,000 rpm for 10 min at 4° C., 20 μL of the supernatant was mixed with 180 μL of water, and 5 μL of the resulting solution was injected and analyzed by LC-MS/MS.
LC-MS/MS-AJ (Triple Quad 5500, AB SCIEX) was used for sample analysis. Column: Acquity UPLC HSS T3 (2.1×50 mm, […]); column temperature: 40° C.; flow rate: 0.5 mL/min. Mobile phase A: 0.1% aqueous formic acid, mobile phase B: acetonitrile solution. Mass spectrometry conditions corresponding to the internal standard: electrospray ionization (ESI) positive ion mode, multiple reaction monitoring (MRM) monitoring ion pair m/z: 288/176 (tenofovir), 261/113 (2FM-UR); the temperature was 500° C.; the scanning time was 0.03 s; the collision energy was 15V.
In the ice bath, 30 μL of plasma was first mixed with 30 μL of internal standard solution (5% trichloroacetic acid solution of 100 ng/mL tolbutamide). After centrifugation at 13,000 rpm for 10 min at 4° C., 40 μL of the supernatant was mixed with 80 μL of water, and 5 μL of the injection was analyzed.
Kidney, liver, heart tissue: in the ice bath, tissue and 5 volumes of homogenization buffer of organ tissues (1.75 mL of methanol, 5 μL of 50% KOH solution and 0.75 mL of 268 mM EDTA solution, pH=8) were fully disrupted and mixed. 60 μL of tissue homogenate was mixed with 60 μl of internal standard solution (5% trichloroacetic acid solution of 100 ng/mL tolbutamide). After centrifugation at 13,000 rpm for 10 minutes at 4° C., 40 μL of the supernatant was mixed with 80 μL of water, and 5 μL of the injection was analyzed.
LC-MS/MS-AJ (Triple Quad 5500, AB SCIEX) was used for sample analysis. Column: ACE 3 AQ (2.1×50 mm); column temperature: 55° C.; flow rate: 0.45 mL/min. […]

rat hepatocytes = details: lamivudine triphosphate used as a reference; cited from earlier work
[2] = test system: human liver microsome (HLM); test: Human liver microsomal metabolism in vitro (release of 2FM-UMP); assay type: in vitro ADME; details: formation of 2FM-UMP, versus other candidate compounds of Table 3
From the text: The human liver microsome (HLM) used in this test was purchased from In Vitro Technologies (IVT) with a batch number of SSP X008070, which was a mixed liver microsome extracted from the liver tissues of 150 donors. The product description recorded that the metabolic activity of CYP3A4 in this batch of the human liver microsomes was 1.734 nmol/mg/min (the rate at which testosterone is metabolized to produce 6-β testosterone). The test compound was synthesized by Zhejiang Plato Pharmaceutical Technology Co., Ltd., and dissolved in methanol to prepare a storage solution having a concentration of 25 mM. The enzymatic reaction was carried out in a 100 mM KH2PO4 buffer solution (pH 7.4) at a test compound concentration of 25 μM and a human liver microsome concentration of 2 mg/ml. The reaction was initiated by the addition of NADPH (final concentration 2 mM). After reacting for 5 min in a constant temperature shaking water bath, the reaction was terminated by the rapid addition of methanol at a volume of 1.5 times that of the reaction mixture. The reaction solution was centrifuged at a maximum speed of 13,600 rpm using an Eppendorf bench top centrifuge for 20 min, and the supernatant was taken. And then the supernatant was dried by a nitrogen blower and redissolved in mobile phase A (aqueous solution containing 5 mM ammonium acetate and 0.05% formic acid v/v). The resulting sample was analyzed by LC-MS/MS (Waters, Acquity UPLC HSS T3 column).

[3] = 30 mg/kg intragastric, within 24 h
[4] = 30 mg/kg intragastric, within 24 h, plasma
[5] = same dose (30 mg/kg), plasma, relative to sofosbuvir

| Exposure amount of 2FM-UMP in liver (AUC0-t) [1, 3] [ng·h/g] | Exposure amount of 2FM-UTP in liver (AUC0-t) [1, 3] [ng·h/g] | Exposure amount of 2FM-UMP in plasma (AUC0-t) [1, 4] [ng·h/g] | Active molecule 2FM-UTP in the blood and heart ([1]; 30 mg/kg) | Transformation rate relative to other candidate compounds [2] | 2FM-UTP released in liver versus corresponding time points of sofosbuvir [1] | 2FM-UMP released in the heart versus sofosbuvir ([1]; 30 mg/kg, heart) | 2FM-UR released in the heart versus equivalent dose of sofosbuvir ([1]; 30 mg/kg, heart, p<0.01, FIGS. 4A-4B) | 2FM-UMP concentration in plasma as fraction of sofosbuvir [1, 5] | 2FM-UR concentration in plasma relative to sofosbuvir [1, 5] | Compound | Exposure amount of 2FM-UMP in heart (AUC0-t) ([1]; 30 mg/kg intragastric, within 24 h, heart, N.D. = below 5 ng/g or 5 ng/mL) [ng·h/g] | Corresponding active triphosphate compound produced in rat hepatocytes (rat hepatocytes) [nmol/g] |
| --- | --- | --- | --- | --- | --- | --- | --- | --- | --- | --- | --- | --- |
| 65242 | 9591 | 105 | could not be detected | almost more than twice | significantly higher | less |  |  |  | C[C@@]1(F)[C@H](O)[C@@H](COP2(=O)OCC[C@H](c3cc(Cl)cc(Cl)c3)O2)O[C@H]1n1ccc(=O)[nH]c1=O (stereo partly drawn) [PA2024] |  |  |
| 102822 | 26682 | 439 | could not be detected | almost more than twice | significantly higher | less |  |  |  | C[C@@]1(F)[C@H](O)[C@@H](COP2(=O)OCC[C@H](c3cc(F)cc(Cl)c3)O2)O[C@H]1n1ccc(=O)[nH]c1=O (stereo partly drawn) [PA2020] |  |  |

More lines, now with the values behind:

| Compound | Exposure amount of 2FM-UMP in liver (AUC0-t) [1, 3] [ng·h/g] | Exposure amount of 2FM-UTP in liver (AUC0-t) [1, 3] [ng·h/g] | Exposure amount of 2FM-UMP in plasma (AUC0-t) [1, 4] [ng·h/g] | Active molecule 2FM-UTP in the blood and heart ([1]; 30 mg/kg) | Transformation rate relative to other candidate compounds [2] | 2FM-UTP released in liver versus corresponding time points of sofosbuvir [1] | 2FM-UMP released in the heart versus sofosbuvir ([1]; 30 mg/kg, heart) | 2FM-UR released in the heart versus equivalent dose of sofosbuvir ([1]; 30 mg/kg, heart, p<0.01, FIGS. 4A-4B) | 2FM-UMP concentration in plasma as fraction of sofosbuvir [1, 5] | 2FM-UR concentration in plasma relative to sofosbuvir [1, 5] | Exposure amount of 2FM-UMP in heart (AUC0-t) ([1]; 30 mg/kg intragastric, within 24 h, heart, N.D. = below 5 ng/g or 5 ng/mL) [ng·h/g] | Corresponding active triphosphate compound produced in rat hepatocytes (rat hepatocytes) [nmol/g] |
| --- | --- | --- | --- | --- | --- | --- | --- | --- | --- | --- | --- | --- |
| CC(C)OC(=O)[C@H](C)N[P@](=O)(OC[C@H]1O[C@@H](n2ccc(=O)[nH]c2=O)[C@](C)(F)[C@@H]1O)Oc1ccccc1 [SFB, sofosbuvir, reference compound] | 27128 | 2691 | 5680 | could not be detected |  |  |  |  |  |  | 417 |  |
| CCC(=O)O[C@@H]1[C@@H](COP2(=O)OCC[C@H](c3cccc(Cl)c3)O2)O[C@@H](n2ccc(=O)[nH]c2=O)[C@]1(C)F (stereo partly drawn) |  |  |  |  |  |  |  |  |  |  |  | 87.8 |
| C[C@@]1(F)[C@H](O)[C@@H](COP2(=O)OCC[C@H](c3cc(Cl)ccc3F)O2)O[C@H]1n1ccc(=O)[nH]c1=O (stereo partly drawn) [PA2029] | 110339 | 11820 | 1451 | could not be detected | almost more than twice | significantly higher | less | less | ¼ | approximately half |  |  |

— patent publication US11008361B2, “Liver-specific delivery-based anti-hepatitis C prodrug nucleoside cyclo-phosphate compound and uses thereof” (priority 2017, dated 2021)
